How the values were obtained:
Type in all cases: biochemical
Aurora B = target: T1, Aurora B (Homo sapiens, UniProt Q96GD4); test: Aurora B enzyme inhibition (time-resolved fluorescence, histone H3 peptide); conditions: 1 mM ATP
T1 construct: Active Aurora B enzyme (recombinant residues 1-344)
Description: To determine Aurora B activity of representative compounds of the invention, Active Aurora B enzyme (recombinant residues 1-344) and INCENP (recombinant GST fusion protein (Upstate)) were incubated in wells of a 384 well plate with biotinylated histone H3 peptide residues 1-21 (Upstate), 1 mM ATP, and various concentrations of inhibitors in a HEPES buffer, pH 7.4 containing MgCl2, sodium othrovanadate, and Triton X-100. After 1 hour, the reaction was stopped with EDTA and anti-phospho-histone H3 Europium Cryptate (Cis-Bio) and SA-APC (Phycolink, Prozyme) were added to detect the phosphopeptide. The amount of phosphorylation was determined by the time-resolved fluorescence ratio of signals at 665 nm and 615 nm. The IC50's were calculated by an exponential fit of the inhibition values with the inhibitor concentrations using Assay Explorer software.

Aurora A = target: T2, Aurora A (Homo sapiens, UniProt O14965); test: Aurora A enzyme inhibition (time-resolved fluorescence, STK substrate-2); conditions: 1 mM ATP
T2 sequence (O14965 1-403): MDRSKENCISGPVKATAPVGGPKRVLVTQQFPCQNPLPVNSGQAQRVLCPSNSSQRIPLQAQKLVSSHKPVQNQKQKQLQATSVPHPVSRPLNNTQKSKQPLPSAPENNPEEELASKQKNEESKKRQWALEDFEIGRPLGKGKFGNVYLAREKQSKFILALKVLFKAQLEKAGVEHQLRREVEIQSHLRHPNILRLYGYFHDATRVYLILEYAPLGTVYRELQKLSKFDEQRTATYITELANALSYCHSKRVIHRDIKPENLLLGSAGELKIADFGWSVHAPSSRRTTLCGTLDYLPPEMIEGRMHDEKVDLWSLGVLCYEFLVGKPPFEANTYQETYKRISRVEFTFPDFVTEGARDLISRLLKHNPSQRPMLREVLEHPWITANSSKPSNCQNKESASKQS
Description: To determine Aurora A and C activity of representative compounds of the invention, Active Aurora A or C enzyme was incubated in wells of a 384 well plate with biotinylated STK substrate-2 (Upstate), 1 mM ATP, and various concentrations of inhibitors in a Hepes buffer, pH 7.4 containing MgCl2, sodium othrovanadate, and Triton X-100. After 1 hour, the reaction was stopped with EDTA and anti-phospho-STK antibody Europium Cryptate (Upstate) and SA-XL665 (Upstate) were added to detect the phosphopeptide. The amount of phosphorylation was determined by the time-resolved fluorescence ratio of signals at 665 nm and 615 nm. The IC50s were calculated by an exponential fit of the inhibition values with the inhibitor concentrations using Assay Explorer software.

KDR = KDR (Homo sapiens, UniProt P35968); test: KDR HTRF in vitro kinase assay; set-up: purified enzyme (His6-KDR 789-1354, MW 63 kD); His6 (N); conditions: 1 mM ATP; read-out: KDR enzyme inhibition data (Ki)
Description: To determine the activity of the various kinases, a homogenous time-resolved fluorescence (HTRF) in vitro kinase assay was used. (Mathis, G., HTRF® Technology. J Biomol Screen, 1999. 4(6): p. 309-314; Alfred J. Kolb, Paul V. Kaplita, David J. Hayes, Young-Whan Park, Christine Pernell, John S. Major and Gerard Mathis, Drug Discovery Today, 1998, 3, 333-342.)
For example for KDR, 7 ng/well of purified enzyme (His6-KDR 789-1354, MW 63 kD) was mixed with 0.5 μM N-biotinylated substrate (Biotin-Ahx-AEEEYFFLA-amide (SEQ. ID. 1)), various concentrations of inhibitor in reaction buffer (50 mM HEPES, pH 7.1, 10 mM MgCl2, 2 mM MnCl2, 0.1% BSA and 1 mM DTT, 40 L final volume), ATP (1 mM final conc.) in a black 384-well plate. After 60 minutes incubation at room temperature, the reaction was quenched by addition of a buffered EDTA solution (final approximate concentrations: 30 mM EDTA, 0.1% BSA, 0.1% Triton X-100 and 0.24M KF) and a solution of revelation agents (to give 0.084 ng/well streptavidin-XL-665 (Cis-Bio) and 6.5 ng/well antiphsophotyrosine mAb PT66-K Europium kryptate) was added to the reaction mixture. The quenched reaction was allowed to stand at room temperature for 3 hours and was then read in a time-resolved fluorescence detector (InVision, Perkin-Elmer) at 620 nm and 665 nm sequentially with excitation. The ratio between the signal of 620 nm and 665 nm was used in the calculation of the IC50.

Measured: Ki

Chain of KDR (P35968 789-1354): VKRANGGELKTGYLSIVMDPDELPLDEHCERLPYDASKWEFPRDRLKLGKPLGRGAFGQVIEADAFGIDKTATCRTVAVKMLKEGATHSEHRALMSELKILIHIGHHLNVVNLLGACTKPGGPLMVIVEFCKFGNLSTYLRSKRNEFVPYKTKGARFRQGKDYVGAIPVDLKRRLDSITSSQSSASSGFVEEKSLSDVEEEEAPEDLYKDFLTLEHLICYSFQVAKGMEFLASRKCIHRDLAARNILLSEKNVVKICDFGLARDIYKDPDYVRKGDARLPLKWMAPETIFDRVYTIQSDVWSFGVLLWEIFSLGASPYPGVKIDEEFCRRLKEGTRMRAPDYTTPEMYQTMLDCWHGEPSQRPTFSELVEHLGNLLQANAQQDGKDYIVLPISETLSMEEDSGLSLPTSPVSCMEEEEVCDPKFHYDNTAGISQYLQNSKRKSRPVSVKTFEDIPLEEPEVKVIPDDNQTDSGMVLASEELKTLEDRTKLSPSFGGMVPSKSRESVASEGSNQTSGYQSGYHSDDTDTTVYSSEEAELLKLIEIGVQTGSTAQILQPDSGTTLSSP
T1 sequence (Q96GD4 whole entry, the tested form may be a part): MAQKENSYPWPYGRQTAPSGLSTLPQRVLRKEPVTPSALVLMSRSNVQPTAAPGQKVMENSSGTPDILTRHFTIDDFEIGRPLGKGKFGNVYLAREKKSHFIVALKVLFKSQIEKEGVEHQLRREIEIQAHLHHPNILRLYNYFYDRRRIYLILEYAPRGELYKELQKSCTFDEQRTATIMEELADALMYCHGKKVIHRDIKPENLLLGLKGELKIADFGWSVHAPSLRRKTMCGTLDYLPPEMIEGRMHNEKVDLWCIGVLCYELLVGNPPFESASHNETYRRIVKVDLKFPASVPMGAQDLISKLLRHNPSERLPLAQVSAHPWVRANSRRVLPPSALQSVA
T1 sequence (Q9NQS7 826-918 partner limits assumed): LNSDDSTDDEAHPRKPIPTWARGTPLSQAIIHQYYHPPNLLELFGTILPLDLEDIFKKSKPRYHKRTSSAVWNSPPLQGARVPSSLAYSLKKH

Cn1cc(Nc2ncc(Cl)c(N[C@@H]3CCC[C@@H]3C(N)=O)n2)cn1.Cn1cc(Nc2ncc(Cl)c(N[C@H]3CCC[C@H]3C(N)=O)n2)cn1 (mixture of isomers) [Example 43, (1S,2R)-2-({5-chloro-2-[(1-methyl-1H-pyrazol-4-yl)amino]pyrimidin-4-yl}amino)cyclopentanecarboxamide and (1R,2S)-2-({5-chloro-2-[(1-methyl-1H-pyrazol-4-yl)amino]pyrimidin-4-yl}amino)cyclopentanecarboxamide]
< 0.1 µM: all assays above

NC(=O)[C@@H]1[C@H](Nc2nc(Nc3cnn(CCN4CCCC4)c3)ncc2F)[C@H]2C=C[C@@H]1C2.NC(=O)[C@H]1[C@@H](Nc2nc(Nc3cnn(CCN4CCCC4)c3)ncc2F)[C@@H]2C=C[C@H]1C2 (mixture of isomers) [Example 45, (1S,2S,3R,4R)-3-[(5-fluoro-2-{[1-(2-pyrrolidin-1-ylethyl)-1H-pyrazol-4-yl]amino}pyrimidin-4-yl)amino]bicyclo[2.2.1]hept-5-ene-2-carboxamide and (1R,2R,3S,4S)-3-[(5-fluoro-2-{[1-(2-pyrrolidin-1-ylethyl)-1H-pyrazol-4-yl]amino}pyrimidin-4-yl)amino]bicyclo[2.2.1]hept-5-ene-2-carboxamide]
< 0.1 µM: all assays above

CNC(=O)[C@@H]1[C@H](Nc2nc(Nc3cnn(C)c3)ncc2C(F)(F)F)[C@H]2C=C[C@@H]1C2.CNC(=O)[C@H]1[C@@H](Nc2nc(Nc3cnn(C)c3)ncc2C(F)(F)F)[C@@H]2C=C[C@H]1C2 (mixture of isomers) [Example 47, (1S,2S,3R,4R)—N-methyl-3-{[2-[(1-methyl-1H-pyrazol-4-yl)amino]-5-(trifluoromethyl)pyrimidin-4-yl]amino}bicyclo[2.2.1]hept-5-ene-2-carboxamide and (1R,2R,3S,4S)—N-methyl-3-{[2-[(1-methyl-1H-pyrazol-4-yl)amino]-5-(trifluoromethyl)pyrimidin-4-yl]amino}bicyclo[2.2.1]hept-5-ene-2-carboxamide]
< 0.1 µM: all assays above

CNC(=O)[C@@H]1[C@H](Nc2nc(Nc3cnn(C)c3)ncc2Br)[C@H]2C=C[C@@H]1C2.CNC(=O)[C@H]1[C@@H](Nc2nc(Nc3cnn(C)c3)ncc2Br)[C@@H]2C=C[C@H]1C2 (mixture of isomers) [Example 48, (1S,2S,3R,4R)-3-({5-bromo-2-[(1-methyl-1H-pyrazol-4-yl)amino]pyrimidin-4-yl}amino)-N-methylbicyclo[2.2.1]hept-5-ene-2-carboxamide and (1R,2R,3S,4S)-3-({5-bromo-2-[(1-methyl-1H-pyrazol-4-yl)amino]pyrimidin-4-yl}amino)-N-methylbicyclo[2.2.1]hept-5-ene-2-carboxamide]
< 0.1 µM: all assays above

CCn1cc(Nc2ncc(Br)c(N[C@@H]3[C@H](C(=O)NC)[C@H]4C=C[C@@H]3C4)n2)cn1.CCn1cc(Nc2ncc(Br)c(N[C@H]3[C@@H](C(=O)NC)[C@@H]4C=C[C@H]3C4)n2)cn1 (mixture of isomers) [Example 49, (1S,2S,3R,4R)-3-({5-bromo-2-[(1-ethyl-1H-pyrazol-4-yl)amino]pyrimidin-4-yl}amino)-N-methylbicyclo[2.2.1]hept-5-ene-2-carboxamide and (1R,2R,3S,4S)-3-({5-bromo-2-[(1-ethyl-1H-pyrazol-4-yl)amino]pyrimidin-4-yl}amino)-N-methylbicyclo[2.2.1]hept-5-ene-2-carboxamide]
< 0.1 µM: all assays above

CCn1cc(Nc2ncc(Cl)c(N[C@@H]3[C@H](C(=O)NC)[C@H]4C=C[C@@H]3C4)n2)cn1.CCn1cc(Nc2ncc(Cl)c(N[C@H]3[C@@H](C(=O)NC)[C@@H]4C=C[C@H]3C4)n2)cn1 (mixture of isomers) [Example 51, (1S,2S,3R,4R)-3-({5-chloro-2-[(1-ethyl-1H-pyrazol-4-yl)amino]pyrimidin-4-yl}amino)-N-methylbicyclo[2.2.1]hept-5-ene-2-carboxamide and (1R,2R,3S,4S)-3-({5-chloro-2-[(1-ethyl-1H-pyrazol-4-yl)amino]pyrimidin-4-yl}amino)-N-methylbicyclo[2.2.1]hept-5-ene-2-carboxamide]
< 0.1 µM: all assays above

COc1cnc(Nc2cnn(C)c2)nc1NC1C2C=CC(C2)C1C(N)=O (mixture of isomers) [Example 52, (1S,2S,3R,4R)-3-({5-methoxy-2-[(1-methyl-1H-pyrazol-4-yl)amino]pyrimidin-4-yl}amino)bicyclo[2.2.1]hept-5-ene-2-carboxamide and (1R,2R,3S,4S)-3-({5-methoxy-2-[(1-methyl-1H-pyrazol-4-yl)amino]pyrimidin-4-yl}amino)bicyclo[2.2.1]hept-5-ene-2-carboxamide]
< 0.1 µM: all assays above

CCn1cc(Nc2ncc(OC)c(NC3C4C=CC(C4)C3C(N)=O)n2)cn1 (mixture of isomers) [Example 53, (1S,2S,3R,4R)-3-({2-[(1-ethyl-1H-pyrazol-4-yl)amino]-5-methoxypyrimidin-4-yl}amino)bicyclo[2.2.1]hept-5-ene-2-carboxamide and (1R,2R,3S,4S)-3-({2-[(1-ethyl-1H-pyrazol-4-yl)amino]-5-methoxypyrimidin-4-yl}amino)bicyclo[2.2.1]hept-5-ene-2-carboxamide]
< 0.1 µM: all assays above

CN(C)C(=O)Cn1cc(Nc2ncc(Cl)c(N[C@@H]3[C@H](C(N)=O)[C@H]4C=C[C@@H]3C4)n2)cn1.CN(C)C(=O)Cn1cc(Nc2ncc(Cl)c(N[C@H]3[C@@H](C(N)=O)[C@@H]4C=C[C@H]3C4)n2)cn1 (mixture of isomers) [Example 54, (1S,2S,3R,4R)-3-{[5-chloro-2-({1-[2-(dimethylamino)-2-oxoethyl]-1H-pyrazol-4-yl}amino)pyrimidin-4-yl]amino}bicyclo[2.2.1]hept-5-ene-2-carboxamide and (1R,2R,3S,4S)-3-{[5-chloro-2-({1-[2-(dimethylamino)-2-oxoethyl]-1H-pyrazol-4-yl}amino)pyrimidin-4-yl]amino}bicyclo[2.2.1]hept-5-ene-2-carboxamide]
< 0.1 µM: all assays above

Reference: US8426408B2, “Pyrimidine inhibitors of kinases” (AbbVie Inc., priority 2009, dated 2013)
